{"source": "patent US20230181564A1", "about": "“Potent Tetrahydroquinolone Eliminates Apicomplexan Parasites” (The University of Chicago, priority 2020, published 2023)", "key": {"[1]": {"test": "Metabolic stability in human liver microsomes", "assay_type": "in vitro ADME", "method": "(§1) PBS Sol/Toxicity pH7.4 refers to solubility of the compound in Phosphate Buffered Saline (PBS) at pH7.4. […] Parasites were RH-YFP expressing tachyzoites (Tachy) and EGS (Brady) strains. Studies of effects of inhibitors on HFF or on T.gondii tachyzoites were performed with triplicate wells in at least two biological replicate experiments. Studies of effects on bradyzoites were performed at least twice in at least two biological replicate experiments. Compounds with much less inhibition of mammalian than T. gondii cytochrome bc in the saffarine enzyme assay (indicated by **) provide potential to further develop compounds, if unanticipated toxicity occurs from JAG21.\n(§2) Structure Activity Relationship (SAR) and comparison of effect on T.gondii and HFF enzyme activity. […] The MDCK-MDR1 Permeability Assay was also performed. […] These were measured by Chem Partners."}, "[2]": {"test": "Kinetic/aqueous solubility in PBS pH 7.4", "assay_type": "physicochemical", "method": "as §1, §2"}}, "data": [{"smiles": "Cc1[nH]c2c(c(=O)c1-c1ccc(Oc3ccc(OC(F)(F)F)cc3)cc1)CCCC2", "note": "[JAG021, 2-methyl-3-(4-(4-(trifluoromethoxy)phenoxy)phenyl)-5,6,7,8-tetrahydroquinolin-4-one]", "values": [{"measurement": "Remaining in human liver microsomes", "setting": "[1]; after 45 minutes", "value": "> 99", "unit": "%"}, {"measurement": "half-life", "setting": "[1]; predicted half-life in human liver microsomes, unit in cell, read-out: T1/2 (H)", "value": "> 168", "unit": "h"}, {"measurement": "solubility", "setting": "[2]; amorphous compounds", "value": 7, "unit": "µM"}, {"measurement": "Solubility of the microcrystalline form", "setting": "[2]; microcrystalline form", "value": 3.5, "unit": "µM"}, {"measurement": "PBS Sol pH7.4", "setting": "[2]; solubility in Phosphate Buffered Saline pH 7.4, first value of cell", "value": 7.07, "unit": "μM"}]}]}
